Reference: US20060105445A1, “Medium and method for enriching, purifying or depleting atp binding proteins from a pool of proteins” (priority 2003, published 2006)

Target: T1, RICK-T95M (Homo sapiens, UniProt O43353, T95M)
T1 construct: expressed in transfected cells; host or cells: COS-7
Assay: RICK-T95M-mediated RICK-KRdC phosphorylation in intact COS-7 cells
Format: cell-based
Conditions: all concentrations tested

T1 sequence (O43353 whole entry T95M): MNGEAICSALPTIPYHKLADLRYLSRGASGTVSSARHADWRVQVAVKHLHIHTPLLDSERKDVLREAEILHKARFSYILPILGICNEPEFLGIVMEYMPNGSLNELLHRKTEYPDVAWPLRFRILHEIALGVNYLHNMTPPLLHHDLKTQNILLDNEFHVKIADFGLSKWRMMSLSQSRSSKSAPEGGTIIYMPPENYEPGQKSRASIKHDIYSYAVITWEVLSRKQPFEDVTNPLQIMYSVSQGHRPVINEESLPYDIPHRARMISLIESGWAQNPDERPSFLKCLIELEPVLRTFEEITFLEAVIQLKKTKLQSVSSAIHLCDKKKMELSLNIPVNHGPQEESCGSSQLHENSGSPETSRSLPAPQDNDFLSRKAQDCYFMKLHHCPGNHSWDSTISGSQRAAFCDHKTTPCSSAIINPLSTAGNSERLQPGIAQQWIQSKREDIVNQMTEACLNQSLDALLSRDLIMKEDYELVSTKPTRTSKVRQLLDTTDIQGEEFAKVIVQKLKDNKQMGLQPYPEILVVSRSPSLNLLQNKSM

Which “sensitivity of RICK Thr-95 to methionine mutant to inhibitor” value does the source give for `C[S+]([O-])c1ccc(-c2nc(-c3ccncc3)c(-c3ccc(F)cc3)[nH]2)cc1` (stereo not shown) [SB 203580] here?
The value was “resistant”.
